Measured values published in the Deep4Chem optical property database.

Experiment: solvent given as SMILES

Cc1cccc2ccccc12
absorption maximum (in C1CCCCC1): 293.94 nm

F[B-]1(F)OC(c2ccccc2)=Cc2cc(Cl)nc[n+]21
absorption maximum (in C1CCOC1): 374 nm | absorption maximum (in CC#N): 371 nm | absorption maximum (in CCCCCC): 373 nm | absorption maximum (in Cc1ccccc1): 377 nm | absorption maximum (in ClC(Cl)Cl): 376 nm | absorption maximum (in ClCCl): 375 nm

c1csc(-c2ccc3c4ccc(-c5cccs5)cc4n(-c4cccs4)c3c2)c1
absorption maximum (in ClCCl): 352 nm

CCN(CC)c1ccc(-c2nc(Oc3ccc(-c4nc5ccccc5s4)cc3)nc(Oc3ccc(-c4nc5ccccc5s4)cc3)n2)cc1
absorption maximum (in CN(C)C=O): 374 nm

CC(C)(C)c1cc2c(c(C(C)(C)C)c1)O[B-]1(c3ccc([B-]45OC(c6ccccc6)=N[N+]4=Cc4cc(C(C)(C)C)cc(C(C)(C)C)c4O5)cc3)OC(c3ccccc3)=N[N+]1=C2 (stereo unspecified)
absorption maximum (in C1CCOC1): 455 nm

CC1=C(I)C(C)=[N+]2C1=C(c1c(-c3ccccn3)nc3ccccn13)c1c(C)c(I)c(C)n1[B-]2(F)F
absorption maximum (in ClCCl): 554 nm

CCCCCCOc1ccc(/C=C/c2ccc(N(c3ccc(/C=C/c4ccc(OCCCCCC)cc4)cc3)c3ccc(-c4nc5ccccc5nc4-c4ccc(N(c5ccc(/C=C/c6ccc(OCCCCCC)cc6)cc5)c5ccc(/C=C/c6ccc(OCCCCCC)cc6)cc5)cc4)cc3)cc2)cc1
absorption maximum (in C1CCOC1): 378 nm | absorption maximum (in Cc1ccccc1): 374 nm

N#C/C(=C\c1cn(-c2ccccc2)nc1-c1ccc([N+](=O)[O-])cc1)c1nc2ccccc2s1
absorption maximum (in C1CCOC1): 378 nm | absorption maximum (in C1COCCO1): 379 nm | absorption maximum (in CCOC(C)=O): 375 nm | absorption maximum (in CN(C)C=O): 376 nm | absorption maximum (in CS(C)=O): 375 nm | absorption maximum (in Cc1ccccc1): 383 nm | absorption maximum (in ClC(Cl)Cl): 382 nm

C=Cc1ccc(OC)c(OC)c1
absorption maximum (in C1CCCCC1): 309 nm

CN(c1ccccc1)c1ccc(-c2ccc(-c3ccc(N(C)c4ccccc4)cc3)c3nc(-c4ccccc4)c(-c4ccccc4)nc23)cc1
absorption maximum (in ClC(Cl)Cl): 476 nm

Cc1ccccc1C1=C2C=c3c(oc4ccc(F)cc34)=[N+]2[B-](F)(F)n2c1cc1c3cc(F)ccc3oc12
absorption maximum (in C1CCCCC1): 581.5 nm | absorption maximum (in CCOC(C)=O): 576.5 nm | absorption maximum (in CO): 574.5 nm

CN1CCN(CCCN2c3ccccc3Sc3ccc(C(F)(F)F)cc32)CC1
absorption maximum (in CC#N): 310 nm | absorption maximum (in CO): 310 nm | absorption maximum (in O): 308 nm

c1ccc(CSc2c3ccc(=[N+]4CCCCC4)cc-3oc3cc(N4CCCCC4)ccc23)cc1
absorption maximum (in ClCCl): 598 nm

CCCCC(CC)Cn1c2ccc(C(=C(C#N)C#N)c3ccccc3)cc2c2c(-c3ccc(Br)cc3)c3c(c(-c4ccc(Br)cc4)c21)c1cc(C(=C(C#N)C#N)c2ccccc2)ccc1n3CC(CC)CCCC (stereo unspecified)
absorption maximum (in C1CCOC1): 460 nm | absorption maximum (in CC#N): 462 nm | absorption maximum (in CCO): 464 nm | absorption maximum (in CCOC(C)=O): 457 nm | absorption maximum (in CN(C)C=O): 467 nm | absorption maximum (in ClCCl): 471 nm | absorption maximum (in c1ccccc1): 458 nm

CCCCCCCCC1(CCCCCCCC)c2cc3c(cc2-c2sc(-c4ccc(/C=C5\SC(=S)N(CC)C5=O)c5nsnc45)cc21)C(CCCCCCCC)(CCCCCCCC)c1cc(-c2ccc(/C=C4\SC(=S)N(CC)C4=O)c4nsnc24)sc1-3
absorption maximum (in ClC(Cl)Cl): 652 nm

Cc1ccc(/C=C/c2ccccc2-[n+]2cc([O-])on2)cc1
absorption maximum (in C1CCCCC1): 310 nm | absorption maximum (in CC#N): 304 nm

CCOC(=O)c1ccc(C2CC(c3cccc4ccccc34)=NN2c2ccc(C)cc2)cc1 (stereo unspecified)
absorption maximum (in ClCCl): 385 nm

C[N+]1=C(/C=C/C=C2/N(CCC[N+](C)(C)C)c3ccc(S(=O)(=O)[O-])cc3C2(C)C)C(C)(C)c2ccccc21
absorption maximum (in CS(C)=O): 556 nm

N#Cc1ccc(N(c2ccc(C#N)cc2)c2ccc3c4cccc5c(N(c6ccc(C#N)cc6)c6ccc(C#N)cc6)ccc(c6cccc2c63)c54)cc1
absorption maximum (in C1CCCCC1): 446 nm | absorption maximum (in C1CCOC1): 452 nm | absorption maximum (in CC#N): 446 nm | absorption maximum (in Cc1ccccc1): 451 nm | absorption maximum (in ClCCl): 450 nm

COc1cc(OC)cc(C2=C3C(C)=C(I)C(C)=[N+]3[B-](F)(F)n3c(/C=C/c4c[nH]c5ccc([N+](=O)[O-])cc45)c(I)c(C)c32)c1
absorption maximum (in C1CCOC1): 612 nm | absorption maximum (in CS(C)=O): 622 nm | absorption maximum (in ClCCl): 606 nm

COc1ccc(-n2nc(C#N)c(N3CCOCC3)n2)cc1
absorption maximum (in CC#N): 324 nm

CCCCCCCCCCOc1cc(OCCCCCCCCCC)cc(C2=C3C(/C=C/c4ccc(N(C)C)cc4)=C(C#Cc4ccc(C(C)(C)C)cc4)C(/C=C/c4ccc(N(C)C)cc4)=[N+]3[B-](F)(F)n3c(/C=C/c4ccc(N(C)C)cc4)c(C#Cc4ccc(C(C)(C)C)cc4)c(/C=C/c4ccc(N(C)C)cc4)c32)c1
absorption maximum (in ClC(Cl)Cl): 797 nm

O=P1(c2ccccc2)C2=C(c3ccccc31)S(=O)(=O)c1ccccc12 (stereo unspecified)
absorption maximum (in C1CCCCC1): 380 nm | absorption maximum (in CC#N): 383 nm | absorption maximum (in CCO): 386 nm | absorption maximum (in ClCCl): 386 nm

Cn1c(=O)cc(C(=O)c2ccccc2)c2sc(-c3ccc(C(F)(F)F)cc3)cc21
absorption maximum (in CC#N): 388 nm | absorption maximum (in ClCCl): 398 nm

COc1cc(OC)c2cc(-c3ccccc3CC#N)c(=O)oc2c1
absorption maximum (in ClC(Cl)Cl): 342 nm

O=[N+]([O-])c1ccco1
absorption maximum (in CO): 302 nm | absorption maximum (in O): 313 nm

Cc1cc(-c2ccc(-c3nc4ccccc4[nH]3)cc2)c(C)cc1-c1ccc(-c2nc3ccccc3[nH]2)cc1
absorption maximum (in CN(C)C=O): 323 nm
